{"source": "patent US7326680B1", "about": "“Uterine contraction inhibitors” (Shionogi & Co., Ltd., priority 1999, dated 2008)", "key": {"uterine strips": {"system": "uterine strips", "experiment": "Stimulation of contraction of uterine strips from rats not treated with estrogen", "type": "cell-based, rat", "conditions": "1 nM oxytocin, 1 μM PGF2α or 10 nM bradykinin", "description": "(§1) In another experiment, rats without injection of 17β-estradiol were used. The effect of 100 nM AM on uterine contraction induced by 10 nM bradykinin, 1 nM oxytocin, or 1 μM PGF2α was tested in the presence or absence of 1 μM AM[22-52] or 1 μM CGRP[8-37]."}, "[1]": {"system": "spontaneous myometrial contraction of rat uterine strips", "experiment": "Spontaneous contraction of isolated uterine strips from 17β-estradiol-treated female rats (isotonic transducer)", "type": "cell-based", "conditions": "for effect on the contraction inhibitory effect of 1 to 100 nM AM (spontaneous contraction): 1 μM preliminary addition; for effect of the antagonist per se on spontaneous contraction: 1 μM, preliminary addition (15 min preincubation)", "description": "1 μg of 17β-estradiol in 0.2 ml of 30% ethanol was subcutaneously injected to 10 to 12 week old female rats.\nOn the following day, the rats were sacrificed by hammering their heads. Thereafter, the rats were decapitated, followed by exsanguination. The uteri were isolated from the rats. Each isolated uterus was cut into four fragments a to d (FIG. 1(A)). Portions of each strip to which blood vessels were attached were cut off, thereby obtaining uterine strips (FIG. 1(B)).\nThe effect of AM on the rat uterus was examined by measuring contractions of the uterine strips using an isotonic transducer TD-112S (manufactured by Nippon Kohden Corporation) where the tension was 1 g.\nWhile the uterine strip was immersed in 30 ml of a modified Krebs-Ringer bicarbonate (KRB) solution with glucose) (hereinafter simply referred to as “modified KRB solution”), the uterine strip was attached to the isotonic transducer. The composition of the modified KRB solution is as follows: 122 mM NaCl, 26 mM NaHCO3, 5 mM KCl, 1 mM MgSO4.7H2O, 0.03 mM EDTA-2Na, 2.4 mM CaCl2, and 11 mM glucose; pH 7.4).\n(§2) Myometrial contraction was continuously measured. After spontaneous rhythm of the uterine muscle was confirmed to be constant, 30 μl of 10^−4 M AM (experimental sample) or distilled water (control sample) was added to the respective modified KRB solution with glucose, where the concentration of AM was 100 nM. 30 minutes after the addition of AM or distilled water, 300 μl of 4.5 M KCl was added to make a KCl concentration of 45 mM.\nIn a manner similar to that of Example 1, uterine strips were prepared, and attached to an isotonic transducer in a modified KRB solution. Myometrial contraction was continuously measured. After it was confirmed that the spontaneous rhythm of uterine muscle became constant, 30 μl of 1×10^−6, 2×10^−6, 7×10^−6, 2×10^−5, or 7×10^−5 M AM (experimental samples), or distilled water (control sample) was added to the modified KRB solution at time 0 min (initial addition), 5 min later, 12 min later, 22 min later, and 32 min later, where AM concentrations were 1, 3, 10, 30, and 100 nM, respectively. Thereafter, after 45 minutes from the initial addition of AM or distilled water, 300 μl of 4.5 M KCl was added to the solution to be a KCl concentration of 45 mM.\n8 to 12 weeks old female rats were used to prepare uterine strips in a manner similar to that of Example 1.\nThereafter, the uterine strip was placed in a tissue chamber filled with 30 ml of a modified KRB solution with aeration of 95% O2/5% CO2 at 37° C. to measure contraction of the uterine strip in a manner similar to that of Example 1. After 40 minutes of equilibrium, the uterine strip was preincubated for 15 minutes in the presence or absence of 1 μM AM[22-52] or 1 μM CGRP[8-37]. Thereafter, AM was added to the modified KRB solution in the tissue chamber to gradually increase the AM concentration from 1 nM to 100 nM, exposing the uterine strip to AM."}, "[2]": {"system": "bradykinin-induced contraction of rat uterine strips", "experiment": "Bradykinin-induced contraction of isolated rat uterine strips", "type": "cell-based", "conditions": "10 nM bradykinin; for effect on the inhibitory effect of AM on bradykinin-induced contraction: preliminary addition of 1 μM antagonist", "description": "In a manner similar to that of Example 1, uterine strips were prepared and attached to an isotonic transducer in a modified KRB solution. At the time when 10 nM bradykinin (Peptide Institute, Inc.) was added to the modified KRB solution, myometrial contraction was continuously measured. 20 minutes after the addition of bradykinin, 100 nM AM or distilled water was further added.\nas §1\n(§3) In all measurements, the uterine strips were eventually contracted due to 45 mM KCl depolarization to confirm responses of the myometrium. The results are shown in FIGS. 6(a) to 6(f) and FIGS. 7(a) to 7(e)."}, "[3]": {"system": "galanin-induced tonic contraction of the uterus", "conditions": "Reference 7; cited from earlier work"}, "[4]": {"system": "oxytocin-induced contraction of rat uterine strips", "experiment": "Oxytocin-induced contraction of isolated rat uterine strips", "type": "cell-based", "conditions": "100 nM AM, 1 nM oxytocin, rats not treated with estrogen", "description": "(§4) In another experiment, rats without injection of 17β-estradiol were used. The effect of 100 nM AM on uterine contraction induced by 10 nM bradykinin, 1 nM oxytocin, or 1 μM PGF2α was tested in the presence or absence of 1 μM AM[22-52] or 1 μM CGRP[8-37]. In all measurements, the uterine strips were eventually contracted due to 45 mM KCl depolarization to confirm responses of the myometrium. The results are shown in FIGS. 6(a) to 6(f) and FIGS. 7(a) to 7(e)."}, "[5]": {"system": "PGF2α-induced contraction of rat uterine strips", "experiment": "PGF2α-induced contraction of isolated rat uterine strips", "type": "cell-based", "conditions": "100 nM AM, 1 μM PGF2α, rats not treated with estrogen", "description": "as §4"}, "[6]": {"system": "muscle contraction due to activation of voltage-dependent Ca channels (45 mM KCl)", "experiment": "45 mM KCl depolarization-induced contraction of rat uterine strips", "type": "cell-based", "conditions": "100 nM AM, KCl added 30 min after AM", "description": "as §2, §3"}}, "note": "Bridge positions count the residues as written; N and C are the ends. Ends that are not written are not given here.", "data": [{"compound": "CC[C@H](C)[C@@H]1NC(=O)[C@H](Cc2ccc(O)cc2)NC(=O)[C@@H](N)CSSC[C@@H](C(=O)N2CCC[C@H]2C(=O)N[C@@H](CC(C)C)C(=O)NCC(N)=O)NC(=O)[C@H](CC(N)=O)NC(=O)[C@H](CCC(N)=O)NC1=O", "note": "[oxytocin]", "values": [{"measurement": "stimulation of uterine contraction", "setting": "uterine strips", "result": "significantly stimulated contraction"}]}, {"compound": "AM[22-52]: an antagonist for an AM receptor (TVQKLAHQIYQFTDKDKDNVAPRSKISPQGY; ends and bridges not checked; UniProt P35318 116-146, looked up, fragment) [reference compound]", "values": [{"measurement": "effect on the contraction inhibitory effect of 1 to 100 nM AM (spontaneous contraction)", "setting": "[1]", "result": "substantially completely prevents"}, {"measurement": "effect of the antagonist per se on spontaneous contraction", "setting": "[1]", "result": "had no effect"}, {"measurement": "effect on the inhibitory effect of AM on bradykinin-induced contraction", "setting": "[2]; 100 nM AM", "result": "eliminated"}]}, {"compound": "CGRP[8-37]: an antagonist for a CGRP receptor (VTHRLAGLLSRSGGVVKNNFVPTNVGSKAF; ends and bridges not checked; UniProt P06881 90-119, looked up, fragment) [reference compound]", "values": [{"measurement": "effect on the contraction inhibitory effect of 1 to 100 nM AM (spontaneous contraction)", "setting": "[1]", "result": "substantially completely prevents"}, {"measurement": "effect of the antagonist per se on spontaneous contraction", "setting": "[1]", "result": "had no effect"}, {"measurement": "effect on the inhibitory effect of AM on bradykinin-induced contraction", "setting": "[2]; 100 nM AM", "result": "eliminated"}, {"measurement": "effect on the action of AM on galanin-induced tonic contraction", "setting": "[3]", "result": "eliminated"}]}, {"compound": "YRQSMNQGSRSTGCRFGTCTMQKLAHQIYQFTDKDKDGMAPRNKISPQGY-NH2 (disulfide 14-19; C-terminus assumed) [AM]", "values": [{"measurement": "effect on spontaneous myometrial contraction", "setting": "[1]; 100 nM AM, Example 1, FIGS. 2(c), 2(d)", "result": "significantly inhibited"}, {"measurement": "effect on spontaneous myometrial contraction, cumulative concentrations", "setting": "[1]; 1, 3, 10, 30, 100 nM AM, Example 2, FIGS. 3(a), 3(b)", "result": "inhibited by the addition of AM in a concentration-dependent manner"}, {"measurement": "IC50", "setting": "[1]; AM 1 to 100 nM, estradiol-treated rats, Example 4, read-out: IC50 of inhibition of spontaneous contraction", "result": 23, "unit": "nM"}, {"measurement": "reversibility of the inhibitory effect on spontaneous contraction", "setting": "[1]; washing out and exchanging the modified KRB solution after 100 nM AM", "result": "could be reversed"}, {"measurement": "effect on bradykinin-induced contraction", "setting": "[2]; 100 nM AM added 20 min later, estradiol-treated rats, Example 3", "result": "inhibited"}, {"measurement": "effect on bradykinin-induced contraction", "setting": "[2]; 100 nM AM, rats not treated with estrogen, Example 4", "result": "completely blocked"}, {"measurement": "effect on contraction induced by oxytocin", "setting": "[4]", "result": "almost no effect"}, {"measurement": "effect on contraction induced by PGF2α", "setting": "[5]", "result": "almost no effect"}, {"measurement": "effect on contraction caused by 45 mM KCl", "setting": "[6]", "result": "does not affect"}, {"measurement": "concentration at which galanin-induced tonic contraction of the uterus was inhibited", "setting": "[3]", "result": "≥ 5", "unit": "µM"}]}, {"compound": "prostaglandin F2α [PGF2α]", "values": [{"measurement": "stimulation of uterine contraction", "setting": "uterine strips", "result": "significantly stimulated contraction"}]}]}
